TGI and GI50 data for 14 molecules are collected here from PubChem BioAssay (NCI).

Common to all, as to test: growth of human tumour cells (NCI), 48 h
For assay [1], the system named is 786-0 renal.
Assay [2] relates to A549 NSCLC.
The subject of assay [3] is CAKI-1 renal.
Assay [4] has as its system MDA-MB-231 breast.
In assay [5] the test system is MDA-MB-435.
In assay [6] the test system is OVCAR-3 ovarian.
The test system of assay [7] is SK-MEL-5 melanoma.
Assay [8] deals with T-47D breast.
Assay [9] concerns NCI/ADR-RES ovarian.
In assay [10] the test system is SN12C renal.

Structures are written as SMILES. Where “and” joins values, the source holds several entries; their conditions need not be identical. Equal entries are not always repeated.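 Values below derive from 48-hour exposures of cells grown in 96-well plates, with endpoints linearly interpolated between the two concentrations bracketing the appropriate inhibition level. The concentration for 50% growth inhibition is given as GI50. At the TGI there is no net growth.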

For the molecule `CC1OC(O[C@@H]2C=C3CC[C@@H]4[C@H](CC[C@]5(C)[C@@H](c6ccc(=O)oc6)CC[C@]45O)[C@@]3(C)CC2)C(O)C(OC2OC(CO)C(O)C(O)C2O)C1O` (stereo not given in full), the TGI in assay [1] was 0.0117 µM; in assay [2], 0.000142 µM; in assay [3] it was 0.0015 µM; in assay [4] it was 0.0196 µM; in [5], 0.02 µM; in assay [6] it was 0.0253 µM. This molecule registered a TGI in [7] of 0.0175 µM. Moreover, the GI50 was 0.000388 µM in [4]; 0.000454 µM in [5]; 0.000162 µM in assay [6]; 0.00014 µM in assay [7]; 0.00216 µM in assay [8].

Turning to `Cc1cc(O)c2c(c1)C(C1c3cccc(O)c3C(=O)c3c(O)cc(C)cc31)c1cccc(O)c1C2=O` (stereo not given), the TGI in assay [1] came out at 6.82 µM; in assay [2] it was 0.97 µM; in [3], 7.06 µM; in assay [4] it was 1.73 µM; in [5], 10.7 µM; in assay [9], 9.2 µM. Besides, the TGI in [6] was 0.739 µM; in assay [7] it was 0.557 µM; in assay [10], 3.23 µM; in assay [8], 2.98 µM.

In the case of `O=S(O)c1cc(Cl)c(O)c(Cl)c1`, the TGI in assay [6] and in assay [10] was > 100 µM in each case.

Take `CC(=O)OCC1OC(N=[N+]=[N-])C(OC(C)=O)C(OC(C)=O)C1OC1OC(COC(C)=O)C(OC(C)=O)C(OC(C)=O)C1OC(C)=O` (stereo not given): the TGI in assay [1], in assay [2], in assay [3], in [6], in assay [7] and in assay [10] was > 100 µM throughout.

Regarding `O=C1C(=C([O-])c2ccccc2)C(=O)c2ccccc21.O=C1C(=C([O-])c2ccccc2)C(=O)c2ccccc21.[Ni+2]`, the GI50 is 52.5 µM in assay [2], 33.9 µM in assay [3], 18.2 µM in assay [7] and 51.3 µM in assay [10]. The TGI in [2] was > 100 µM; in [3], > 100 µM; in assay [7], 54.9 µM; in [10] it was > 100 µM.

In the case of `COc1ccc([I+]c2ccc(OC)cc2)cc1`, the TGI in assay [1], in assay [2], in assay [3], in assay [4], in [5] and in [9] was > 100 µM each time. For the same molecule, the TGI in assay [6] was > 100 µM; in [7], 20.7 µM and 6.76 µM; in assay [10], > 100 µM; in assay [8] it was > 100 µM. Moreover, the GI50 was 5.14 µM in assay [2]; > 85.3 µM in [3]; 14.7 µM in assay [5]; 11.8 µM in assay [6]; 1.8 µM in assay [7]; 29.3 µM in [10]. Besides, in assay [8], the GI50 is 13.5 µM.

In the case of `Cn1c(=O)c2[nH]c(SC/C(=N/O)c3ccc(Br)cc3)nc2n(C)c1=O`, in [4], the GI50 is 2.14 µM and the TGI came out at 4.38 µM.

As to `COc1cc2c[n+](C)c3c4cc(OC)c(OCc5ccccc5)cc4c(OCc4ccccc4)cc3c2cc1OC`, the TGI in assay [1] is 35.5 µM; in [2] it was > 88.8 µM; in assay [3] it was > 77.3 µM; in assay [4] it was 18.4 µM; in assay [5], 10.5 µM; in [9], > 100 µM. Besides, the TGI worked out at 10.8 µM in assay [6], 6.77 µM in assay [7], 33.2 µM in assay [10] and 21.6 µM in [8].

Turning to `O=c1[nH]c(=O)n(C2CC(O)C(CO)O2)cc1Br` (stereo not given), the TGI in assay [1], in assay [2], in assay [3], in assay [4], in assay [5] and in [9] was > 100 µM each time. For the same molecule, the TGI in assay [6], in assay [7], in [10] and in assay [8] was > 100 µM throughout.

Consider `COc1cc(O)c(Cc2ccccc2O)c(O)c1C(=O)CCc1ccccc1`, for which the TGI was determined as 21.8 µM in [2]; 13 µM in [3]; 18.9 µM in [9]; 16.1 µM in [6]; 9.36 µM in assay [7]; 17 µM in [10].

In the case of `COc1ccc2c3/c(=C\c4ccc(N(C)C)cc4)c4ccccc4n3[n+](C)c2c1`, the GI50 in [2] was 0.236 µM; in assay [3] it was 0.723 µM; in assay [4] it was 0.0352 µM; in assay [5], 0.484 µM; in assay [9], 4.31 µM; in assay [6], 0.0358 µM. Besides, the TGI was 2.51 µM in [3]; 0.385 µM in assay [4]; 1.83 µM in assay [5]; > 55.8 µM in assay [9]; 0.369 µM in assay [6].

Consider `COc1ccccc1C(=O)OCC1CCCN2CCCCC12` (stereo not given), for which the TGI in [1] was > 100 µM; in [2], > 100 µM; in [3] it was > 100 µM; in [4] it was 61.6 µM; in assay [5], > 100 µM; in assay [9], > 100 µM. The values for the TGI in assay [7], in assay [10] and in assay [8] were > 100 µM, 96 µM and 81.7 µM, respectively.

For `NC(=O)/N=C/c1c(O)c2ccccc2oc1=O`, the TGI in [6], in assay [7] and in assay [10] was > 100 µM in each case.

In the case of `COC(=O)c1c(O)ccc2c1c1c(n2Cc2cccc(C)c2)C(=O)c2ccccc2C1`, the TGI in assay [2] was > 75 µM; in assay [3], 46.3 µM; in [4] it was > 75 µM; in assay [5] it was 42.7 µM; in [9], > 75 µM; in assay [6], > 75 µM. In addition, the TGI is > 75 µM in [7], 27.6 µM in [10] and 32.7 µM in assay [8].
